Structures can show the parent of a compound that is named as a salt.

The nature of one data set: physchem. The source says:
The active ingredient aliskiren is the free base which is described specifically in EP 678503 A and it has one basic group, the amino group in position 5. […] Accordingly, one acidic group can bind to the nitrogen lone pairs of the amino group.

A short description of data set [1]: Hygroscopicity, general statement. Format: physicochemical.
Data set [2] in a line: Dynamic vapour sorption (DVS-1), isothermal water absorption or loss. Format: physicochemical. Conditions: for Change in Mass (%) Desorption / Change in Mass (%) Sorption: 25° C., 2 hours after equilibration. The source says:
A clear characterisation of this property is achieved by means of isothermal measurements over predetermined time intervals and predetermined relative humidity using dynamic vapour sorption (DVS-1 from the company Surface Measurement Systems LTD, Marlow, Buckinghamshire, UK). […] The measurement error of this sorption method based on thermogravimetry is about 0.1%.

A short description of data set [3]: Stability test towards water, water content on storage. Format: physicochemical. Conditions: open container and sealed ampoule, four weeks at 40° C. and 75% relative humidity. The source says:
(§1) The exceptional stability of the nitrate salt of aliskiren towards water may also be shown in stability tests.

A short description of data set [4]: 1-Week Chemical Stability Test, total impurities by HPLC-UV 230 nm. It is filed as physicochemical.
From the text: as §1

`COCCCOc1cc(C[C@@H](C[C@H](N)[C@@H](O)C[C@H](C(=O)NCC(C)(C)C(N)=O)C(C)C)C(C)C)ccc1OC` [aliskiren, 2(S),4(S),5(S),7(S)—N-(3-amino-2,2-dimethyl-3-oxopropyl)-2,7-di(1-methylethyl)-4-hydroxy-5-amino-8-[4-methoxy-3-(3-methoxy-propoxy)phenyl]-octanamide] came in with a pKa in “physchem” of 9.79. The hygroscopicity result in data set [1] was “highly hygroscopic”.
On to `COCCCOc1cc(C[C@@H](C[C@H](N)[C@@H](O)C[C@H](C(=O)NCC(C)(C)C(N)=O)C(C)C)C(C)C)ccc1OC` [nitrate salt of aliskiren], for which the “water absorption or loss” value in data set [2] (DVS conditions employed, measurement error about 0.1%) was “no measurable water absorption or loss”. In data set [2] (DVS, up to 95% RH), the hygroscopicity entry is “non-hygroscopic”. In data set [2] (at 95% RH), this compound showed a moisture uptake of 0.3%. For the same compound, the “Change in Mass (%) Desorption” value in data set [2] (relative humidity 0%) is given as −0.0060%; in data set [2] (relative humidity 25%), 0.0326%; in data set [2] (relative humidity 50%), 0.0842%; in data set [2] (relative humidity 75%), 0.1495%; in data set [2] (relative humidity 85%), 0.1938%; in data set [2] (relative humidity 95%), 0.3091%. For the same compound, the “Change in Mass (%) Sorption” value in data set [2] (relative humidity 0%, 39.4 mg sample) is given as 0.0001%; in data set [2] (relative humidity 25%), 0.0269%; in data set [2] (relative humidity 50%), 0.0821%; in data set [2] (relative humidity 75%), 0.1425%; in data set [2] (relative humidity 85%), 0.1864%; in data set [2] (relative humidity 95%) it was 0.3091%. Moreover, in data set [3], the water content result is on record as “remains constant”. For the same compound, the “Total Impurities (HPLC-UV, 230 nm), %” value is on record as 1.0% in data set [4] (1 week, 50 C. sealed, listed as Nitrate); 1.0% in data set [4] (1 week, 50 C./75% RH, listed as Nitrate); 1.0% in data set [4] (1 week, 80 C. sealed, listed as Nitrate); 1.1% in data set [4] (1 week, 80 C./75% RH, listed as Nitrate).
For `COCCCOc1cc(C[C@@H](C[C@H](N)[C@@H](O)C[C@H](C(=O)NCC(C)(C)C(N)=O)C(C)C)C(C)C)ccc1OC` [HemiFumarate], the “Total Impurities (HPLC-UV, 230 nm), %” value in data set [4] (1 week, 50 C. sealed) is given as 1.1%; in data set [4] (1 week, 50 C./75% RH), 9.3%; in data set [4] (1 week, 80 C. sealed), 18.1%; in data set [4] (1 week, 80 C./75% RH), 64.3%; in data set [4] (Unstressed) it was 1.1%.

One may read the pKa as the pH at which an ionisable group is half protonated. A higher pKa goes with a group that holds its proton tightly.

These data come from patent US20090131528A1, “SALT” (priority 2006, published 2009).
